Laboratory results as given in paper PMC5500888, “Structural insights into the mechanism of the membrane integral N-acyltransferase step in bacterial lipoprotein synthesis” (Nature Communications, 2017).

How the values were obtained:
LntPae = molecular target: T1, LntPae (Pseudomonas aeruginosa, UniProt Q9ZI86); assay: SDS-PAGE band shift of FSL-1-biotin with western blot; type: biochemical; conditions: acyl donor 500 uM; co-substrate FSL-1-biotin 2.5-5 uM; 20 nM enzyme; 0.1% Triton X-100; pH 7.2 or 6.5; 37 C
T1 construct: gene lnt; full-length membrane enzyme, N-terminal thrombin-cleavable His6-tag (pET28a, synthetic gene), expressed in E. coli C41(DE3), purified in LMNG; tag cleavage not described
T1 sequence (Q9ZI86 1-511): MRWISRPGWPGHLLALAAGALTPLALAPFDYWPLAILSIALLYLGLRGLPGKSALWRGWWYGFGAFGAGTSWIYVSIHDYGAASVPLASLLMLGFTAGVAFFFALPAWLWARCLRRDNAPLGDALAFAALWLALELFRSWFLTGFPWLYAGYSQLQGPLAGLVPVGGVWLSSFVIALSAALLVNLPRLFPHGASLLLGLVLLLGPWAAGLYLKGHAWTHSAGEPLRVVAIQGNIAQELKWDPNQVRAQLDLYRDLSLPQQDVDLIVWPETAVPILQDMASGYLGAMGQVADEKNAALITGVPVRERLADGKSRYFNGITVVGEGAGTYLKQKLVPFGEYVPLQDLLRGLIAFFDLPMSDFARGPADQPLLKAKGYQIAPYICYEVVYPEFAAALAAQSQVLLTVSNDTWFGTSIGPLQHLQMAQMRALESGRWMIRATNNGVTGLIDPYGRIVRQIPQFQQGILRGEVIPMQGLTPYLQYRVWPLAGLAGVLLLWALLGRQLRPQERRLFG

LntEco = molecular target: T2, LntEco (Escherichia coli, UniProt P23930); assay: TLC with fluorescence of lyso-NBD-PE formed; type: biochemical; conditions: labelled compound; NBD-PE 500 uM; co-substrate FSL-1 150 uM; 8 uM enzyme; 50 mM Tris-HCl pH 7.5, 150 mM NaCl, 1 mM TCEP, 0.02% LMNG; 37 C
T2 construct: gene lnt; full-length membrane enzyme, N-terminal thrombin-cleavable His6-tag (pET28a, synthetic gene), expressed in E. coli C43(DE3), purified in LMNG; tag cleavage not described

Compound | SDS-PAGE band shift of FSL-1-biotin with western blot (LntPae) | TLC with fluorescence of lyso-NBD-PE formed (LntEco)
CCCCCCCC/C=C\CCCCCCCC(=O)OC[C@H](COP(=O)(O)OCC(O)CO)OC(=O)CCCCCCC/C=C\CCCCCCCC (some centres unmarked) [DOPG] | When DOPE was replaced with DOPG or DOPC, the product was formed much less efficiently | –
CCCCCCCC/C=C\CCCCCCCC(=O)OC[C@H](COP(=O)(O)OCCN)OC(=O)CCCCCCCCCCCNc1ccc([N+](=O)[O-])c2nonc12 [NBD-PE] | – | Time course of lyso-PE production catalysed by LntEco
